The text below walks through data of patent publication US20240101572A1, “DIHYDROOXADIAZINONE COMPOUND AND PHARMACEUTICAL USE THEREOF” (Japan Tobacco Inc., priority 2022, published 2024).

One assay addresses full-length human PLD1 (Homo sapiens (Human), UniProt Q13393). As to the kind of experiment: Evaluation of human PLD1 enzyme inhibitory activity (Amplex Red / choline oxidase fluorescence). Conditions: full-length human PLD1 enzyme; read-out: PLD1 IC50. The class given is biochemical. Put shortly:
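Fluorescence read-out couples choline to Amplex Red via choline oxidase and peroxidase after a 60 min room-temperature reaction. Enzyme: FLAG-tagged full-length human PLD1 from Expi293F cells, anti-FLAG purified; substrate diheptanoyl phosphatidylcholine; HEPES pH 7.5 assay buffer with 0.01% NP-40, 0.1% BSA, 5% DMSO final.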

Another assay addresses full-length human PLD2 (Homo sapiens (Human), UniProt O14939). As to the kind of experiment: Evaluation of human PLD2 enzyme inhibitory activity (Amplex Red / choline oxidase fluorescence). Conditions: full-length human PLD2 enzyme; read-out: PLD2 IC50. The class given is biochemical. Put shortly: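 Released choline was read by Amplex Red fluorescence coupled to choline oxidase and HRP after a 60 min room-temperature reaction. Substrate was diheptanoyl phosphatidylcholine, added as a 6 mmol/L solution, and enzyme was FLAG-tagged full-length human PLD2 from Expi293F, added as a 6 nmol/L solution. Buffer was 50 mM HEPES pH 7.5 with 5% final DMSO.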

Chain of full-length human PLD2 (O14939 whole entry): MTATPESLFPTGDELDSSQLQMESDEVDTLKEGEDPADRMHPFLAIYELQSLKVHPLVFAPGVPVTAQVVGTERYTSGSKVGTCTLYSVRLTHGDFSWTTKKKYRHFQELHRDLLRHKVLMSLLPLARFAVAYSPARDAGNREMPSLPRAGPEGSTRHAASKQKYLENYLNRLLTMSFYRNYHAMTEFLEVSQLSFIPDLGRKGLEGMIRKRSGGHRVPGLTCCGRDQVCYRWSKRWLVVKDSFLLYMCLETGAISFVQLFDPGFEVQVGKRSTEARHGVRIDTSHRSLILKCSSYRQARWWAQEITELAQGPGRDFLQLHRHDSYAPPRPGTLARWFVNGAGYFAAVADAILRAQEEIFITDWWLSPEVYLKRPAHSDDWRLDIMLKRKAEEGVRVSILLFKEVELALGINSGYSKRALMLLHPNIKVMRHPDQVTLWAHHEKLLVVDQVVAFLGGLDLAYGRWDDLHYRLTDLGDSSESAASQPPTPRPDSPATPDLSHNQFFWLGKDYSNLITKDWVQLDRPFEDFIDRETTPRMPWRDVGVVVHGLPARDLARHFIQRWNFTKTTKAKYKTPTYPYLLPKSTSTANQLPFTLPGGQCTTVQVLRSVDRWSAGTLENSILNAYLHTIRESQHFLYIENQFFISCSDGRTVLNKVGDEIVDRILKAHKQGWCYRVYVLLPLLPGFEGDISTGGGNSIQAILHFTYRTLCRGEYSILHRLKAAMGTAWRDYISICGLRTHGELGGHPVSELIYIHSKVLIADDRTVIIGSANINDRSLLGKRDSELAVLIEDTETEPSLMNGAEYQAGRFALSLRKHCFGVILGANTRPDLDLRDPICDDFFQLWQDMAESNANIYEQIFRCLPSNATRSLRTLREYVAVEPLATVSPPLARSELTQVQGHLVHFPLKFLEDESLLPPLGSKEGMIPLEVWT
Chain of full-length human PLD1 (Q13393 other isoform, or with tags, fused parts or gaps): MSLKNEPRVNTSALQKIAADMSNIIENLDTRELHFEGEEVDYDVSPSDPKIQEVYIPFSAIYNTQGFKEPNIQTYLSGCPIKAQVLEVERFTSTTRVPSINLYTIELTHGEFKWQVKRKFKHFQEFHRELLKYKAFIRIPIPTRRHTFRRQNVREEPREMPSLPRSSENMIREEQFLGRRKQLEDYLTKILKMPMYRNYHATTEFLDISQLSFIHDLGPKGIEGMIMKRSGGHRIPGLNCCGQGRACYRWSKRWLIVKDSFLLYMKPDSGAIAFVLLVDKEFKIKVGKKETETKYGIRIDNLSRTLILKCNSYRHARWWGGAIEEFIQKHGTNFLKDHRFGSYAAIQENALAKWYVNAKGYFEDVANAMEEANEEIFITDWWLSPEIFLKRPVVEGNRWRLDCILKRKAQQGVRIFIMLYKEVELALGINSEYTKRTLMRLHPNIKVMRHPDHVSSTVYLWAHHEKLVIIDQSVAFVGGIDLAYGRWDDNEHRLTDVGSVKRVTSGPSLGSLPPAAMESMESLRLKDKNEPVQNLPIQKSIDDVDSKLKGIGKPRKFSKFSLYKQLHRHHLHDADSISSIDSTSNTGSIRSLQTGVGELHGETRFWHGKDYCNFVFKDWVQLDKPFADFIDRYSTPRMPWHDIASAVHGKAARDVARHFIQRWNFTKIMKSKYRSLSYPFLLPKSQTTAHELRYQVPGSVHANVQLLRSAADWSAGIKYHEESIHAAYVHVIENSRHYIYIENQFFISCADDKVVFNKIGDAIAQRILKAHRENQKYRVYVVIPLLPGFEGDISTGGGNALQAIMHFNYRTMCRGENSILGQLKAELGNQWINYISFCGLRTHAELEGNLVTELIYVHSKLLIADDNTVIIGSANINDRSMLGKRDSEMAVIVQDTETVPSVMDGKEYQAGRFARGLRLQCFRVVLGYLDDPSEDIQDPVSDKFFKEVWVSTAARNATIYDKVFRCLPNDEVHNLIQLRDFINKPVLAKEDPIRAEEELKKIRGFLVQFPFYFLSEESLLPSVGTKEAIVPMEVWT

Consider `C[C@@H](C[C@H]1CC[C@]2(CC1)OC(=O)NN=C2c1ccc(F)cc1Br)NC(=O)C(=O)NC1CC1` [Example 203], for which the concentration for half-maximal inhibition (IC50) (usually the concentration needed to halve the response being measured) on full-length human PLD1 was 12 nM; at full-length human PLD2 it was less than 10 nM.
In the same order, the values of `C[C@@H](C[C@H]1CC[C@]2(CC1)OC(=O)NN=C2c1cnc(C2CC2)cc1Cl)NC(=O)N1CCn2nccc2C1` [Example 277] are 17 nM and less than 10 nM.
For the compound `C[C@@H](C[C@H]1CC[C@]2(CC1)OC(=O)NN=C2c1cn(C)nc1I)NC(=O)c1cc(Cl)no1` [Example 2-046], the 50% inhibitory concentration (IC50) at full-length human PLD1 amounted to 24 nM; at full-length human PLD2, 118 nM.
For the compound `C[C@@H](CC1CCC2(CC1)OC(=O)NN=C2c1ccncc1Br)NC(=O)c1cc(Cl)no1` (mixture of isomers) [Example 121], the concentration for half-maximal inhibition (IC50) on full-length human PLD1 and on full-length human PLD2 was less than 10 nM in each case.
On to `C[C@@H](C[C@H]1CC[C@]2(CC1)OC(=O)NN=C2c1ccc(F)cc1)NC(=O)c1cc2ccccc2o1` [Example 7], for which the IC50 at full-length human PLD1 was 30 nM; on full-length human PLD2, 44 nM.
In the same order, the values of `C[C@@H](C[C@H]1CC[C@]2(CC1)OC(=O)NN=C2c1ccc(S(C)(=O)=O)cc1Br)NC(=O)c1cc2cc(F)ccc2[nH]1` [Example 32] are 32 nM and less than 10 nM.
With `C[C@@H](C[C@H]1CC[C@]2(CC1)OC(=O)NN=C2c1cc(C#N)ccc1Br)NC(=O)c1cc(C2CC2)n[nH]1` [Example 2-069], the IC50 at full-length human PLD1 and on full-length human PLD2 was less than 10 nM each time.
Turning to `CNC(=O)C(=O)N[C@@H](C)CN1CCC2(CC1)OC(=O)NN=C2c1ccc(F)cc1Br` [Example 179, (S)—N^1-(1-(5-(2-bromo-4-fluorophenyl)-2-oxo-1-oxa-3,4,9-triazaspiro[5.5]undec-4-en-9-yl)propan-2-yl)-N^2-methyloxamide], the IC50 on full-length human PLD1 is 25 nM; on full-length human PLD2 it was less than 10 nM.
In the same order, the values of `CNC(=O)C(=O)N[C@@H](C)C[C@H]1CC[C@]2(CC1)OC(=O)NN=C2c1cnc(OCC(F)(F)F)cc1C` [Example 170] are 19 nM and less than 10 nM.
In the same order, the values of `CNC(=O)C(=O)N[C@@H](C)CN1CCC2(CC1)OC(=O)NN=C2c1cc(C(=O)NC)ccc1Br` [Example 2-037] are 43 nM and 13 nM.
In the same order, the values of `C[C@H](NC(=O)c1cnn(C)c1)[C@H](C)[C@H]1CC[C@]2(CC1)OC(=O)NN=C2c1cc(C#N)ccc1Br` [Example 339] are 39 nM and 10 nM.
`C[C@@H](CN1CCC2(CC1)OC(=O)NN=C2c1ccc(C#N)cc1Br)NC(=O)c1cncn1C` [Example 2-059]: the IC50 on full-length human PLD1 came to 731 nM; on full-length human PLD2, 505 nM.
For `CNC(=O)C(=O)N[C@@H](C)C[C@H]1CC[C@]2(CC1)OC(=O)NN=C2c1ccc(Br)cc1` [Example 23] the same measures were 39 nM and 51 nM.
For the compound `Cc1cc(C(=O)N[C@@H](C)C[C@H]2CC[C@]3(CC2)OC(=O)NN=C3c2ccc(F)cc2Br)[nH]n1` [Example 12], the IC50 on full-length human PLD1 and at full-length human PLD2 was less than 10 nM throughout.
In the case of `CNC(=O)C(=O)N[C@@H](C)C[C@H]1CC[C@]2(CC1)OC(=O)NN=C2c1cc(F)ccc1Br` [Example 157], the IC50 on full-length human PLD1 and at full-length human PLD2 was less than 10 nM each time.
